Source: US5373089A, “Oxytocin antagonist” (Northwestern University, priority 1993, dated 1994)
Starred links: 1 amine or outer side, 2 acyl side, 3 side chain; linkers in the order of their positions; H or OH if unused. Positions of bridges follow the written chain, without caps; N, C: chain ends. Non-standard residues stand in square brackets, D forms with d. Residues, ends and D or L forms follow the SMILES beside them. X1 = O=C(CC1(S[*:2])CCCCC1)[*:1]

Legend:
RAT OXYTOCIN RECEPTOR = target: T1, RAT OXYTOCIN RECEPTOR (Rattus norvegicus, UniProt P70536); assay: Oxytocin receptor assay, pregnant rat uterus (P21) membranes, 3H-OT competition; type: binding
T1 construct: from tissue; host or cells: uterus of day-21 pregnant Holtzman rats, sucrose-gradient membrane fraction
T1 sequence (P70536 1-388): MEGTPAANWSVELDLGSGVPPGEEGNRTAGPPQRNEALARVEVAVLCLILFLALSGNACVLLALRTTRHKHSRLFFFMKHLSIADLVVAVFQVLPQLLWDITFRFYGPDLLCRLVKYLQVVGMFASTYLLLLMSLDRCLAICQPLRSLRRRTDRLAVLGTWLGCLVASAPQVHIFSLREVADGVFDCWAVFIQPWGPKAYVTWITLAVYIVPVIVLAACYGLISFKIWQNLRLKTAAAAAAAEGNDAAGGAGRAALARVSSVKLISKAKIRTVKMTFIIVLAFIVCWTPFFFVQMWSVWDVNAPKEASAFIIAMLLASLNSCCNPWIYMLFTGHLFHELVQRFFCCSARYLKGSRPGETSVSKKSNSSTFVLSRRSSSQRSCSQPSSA
Experimental: Uterine tissue was removed on day 21 of pregnancy (delivery=Days 211/2 to 221/2) from Holtzman rats. The tissue was emptied of its contents, rinsed in ice cold buffer, cut into small pieces and frozen at -70° C. until homogenization.
Oxytocin receptors (OTrs) reside on the cell membrane and are present at high concentrations at the end of pregnancy in uterine tissue. Frozen tissue is homogenized in Tris buffer, the homogenate filtered, and the filtrate centrifuged at 1000 g for 15 minutes at 4° C. The supernatant is centrifuged at 40,000 g for 30 minutes and the pellet containing the cell membranes resuspended in 10% sucrose. Density gradient ultracentrifugation is then performed by placing the 10 % sucrose suspension on top of 35% sucrose and centrifuging for 30 minutes in a swing bucket rotor at 105,000 g. The membranes at the interface of the 10%/35% sucrose are removed and resuspended in Tris buffer containing EDTA for 30 minutes. This procedure removes divalent cation and results in dissociation of any endogenously bound OT to the receptor. This mixture is then centrifuged for 15 minutes at 100,000 g and the pellet containing the membrane OTrs resuspended in Tris, PMSF, Mg^++, buffer by sonication.
The binding assay consist of 0.1 ml of 20,000 cmp of tritium labeled OT (New England Nuclear, […]), 0.1 ml of OT antagonist added at increasing concentration, 0.25 ml of buffer and 0.05 ml of membrane (70-150 ug protein). A nonspecific tube has 100× of cold OTA added to it. The incubation is for 30 minutes at 30 ° C. The membrane is pelleted by centrifugation in ultraclear mini tubes (5×41 mm) for 30 minutes at 105,000 g. The resulting pellet containing the bound ^3 H-OT is dissolved in 0.1N NaOH at 45 ° C. for 30 minutes and this mixture is then placed in liquid scintillation counting fluid and counted for dpms in a scintillation counter.
The data is analyzed by nonlinear curve fitting methods using McPherson's EBDA (J Pharmacol Methods 14:213-228, 1985) and Munson and Rodbard's LIGAND (Anal Biochem 107:220-239, 1980) program for saturation and competition analysis for determining Kds and Kis.

ESTROUS RAT UTERUS = assay: Oxytocic bioassay (isolated rat uterus, integrated contraction response to oxytocin); type: cell-based; conditions: for Oxytocic Bioassay pA2: virgin rat uterus in natural estrus, Munsick's buffer 0.5 mM Mg++, integrated contraction area
Description: The protocol used for the oxytocin bioassay procedure is derived from procedures described in a paper by Sawyer, et al., Endocrinology, 106:81 (1980), which in turn was based on reports of Munsick, Brit. J. Pharmacol., 3:328 (1960), and Holton, Brit. J. Pharmacol., 3:328 (1948). The assay calculations for the pA2 estimates are described by Schild, British J. Pharmacology, 2:189 (1947). The major difference in the present procedure from those reported by others in the field is that the area under the contraction is integrated where most other techniques calculate the amplitude. Integration provides much more consistent and reliable results although the pA2 estimates are approximately an order of magnitude lower than those reported using amplitude of the contraction as the endpoint.
1. Animals--a 1.5 cm piece of uterus from a virgin rat (Holtzman) in natural estrus is used for the assay.
2. Buffer/Assay Bath--The buffer used is Munsicks. […] The buffer is gassed continuously with 95% oxygen; 5% carbon dioxide giving a pH of 7.4. The temperature of the assay bath is 37° C. A 10 ml assay bath is used that contains a water jacket for maintaining the temperature and inlet and outlet spikets for adding and removing buffer.
3. Polygraph/transducer--The piece of uterine tissue used for the assay is anchored at one end and connected to a Statham Strain Gauge Force Transducer at the other end which in turn is attached to a Grass Polygraph Model 79 for monitoring the contractions.
4. Assay Protocol. (a) The tissue is equilibrated in the assay bath for one hour with washing with new buffer every fifteen minutes. One gram of tension is kept on the tissue at all times.
(b) The tissue is stimulated initially with oxytocin at 10 nM to "acclimate" the tissue and with […] KCl to determine the maximum contractile response.
(d) The tissue is exposed to oxytocin (Calbiochemical, San Diego, Calif.) for one minute and washed out. There is a three minute interval before addition of the next dose of the agonist or antagonist. When the antagonist is tested, it is given five minutes before the agonist. The agonist is given for one minute. All responses are integrated using a 7P10 Grass Integrator. This is the major difference between the present protocol and others in the literature which usually measure amplitude of the contractions as the response. A single concentration of oxytocin, equal to 80% of the maximum response, is used to test the antagonist. […] This is repeated three times for each dose of antagonist for a three point assay.
(e) Calculations for pA2 : The dose-response (DR) ratios are calculated for antagonist and a Schild's Plot is performed by plotting the Log (DR-1) vs. Log of antagonist concentration. The line plotted is calculated by least squares regression analysis. The pA2 is the concentration of antagonist at the point where the regression line crosses the 0 point of the Log (DR-1) ordinate. The pA2 is the negative Log of the concentration of antagonist that will reduce the response to the agonist by one-half.
The protocol used for the oxytocin bioassay procedure is derived from procedures described in a paper by Sawyer, et al., Endocrinology, 106:81 (1980), which in turn was based on reports of Munsick, Brit. J. Pharmacol., 3:328 (1960), and Holton, Brit. J. Pharmacol., 3:328 (1948). The assay calculations for the pA2 estimates are described by Schild, Brit. J. Pharmacol. (1947). The major difference in procedure from those previously reported was the integration of the area under the contraction instead of merely calculating the amplitude. Integration provides more consistent and reliable results, although the pA2 estimates are about an order of magnitude lower than those reported using amplitude of the contraction as the endpoint.
A 1.5 cm piece of uterus from a virgin rat (Holtzman) in natural estrus is used for the assay.
The buffer used is Munsick's. […]

Molecule | RECEPTOR ASSAY Ka (RAT OXYTOCIN RECEPTOR; pregnant rat uterus (P21), Table 3) | rOTr (OTA/ANTI) (RAT OXYTOCIN RECEPTOR; ratio of binding affinity to ANTAG I, rat oxytocin receptor) | OXYTOCIC BIOASSAY ED50 (ESTROUS RAT UTERUS; estrous rat uterus, Table 3) | BIOASSAY ED50 (ESTROUS RAT UTERUS; estrous rat uterus, Table 4) | BIOASSAY (ANTI/OTA) (ESTROUS RAT UTERUS; ratio to ANTAG I, rat oxytocic bioassay) | Oxytocic Bioassay pA2 (ESTROUS RAT UTERUS) | Oxytocic Bioassay pA2 (ESTROUS RAT UTERUS; D-Trp^2,Pen^6,Arg^8 ] oxytocin) | Kd (RAT OXYTOCIN RECEPTOR)
[(S)Pmp^1,D-Trp^2,Pen^6,Arg^8 ] oxytocin [Compound D] | 24.40 10^+8 M^-1 | 20.0 | 1.38 nM | 1.38 nM | 22.1 | 8.86 | greater than 8.86 | –
CC[C@H](C)[C@@H]1NC(=O)[C@H](Cc2ccccc2)NC(=O)[C@@H](Cc2c[nH]c3ccccc23)NC(=O)CC2(CCCCC2)SSC[C@@H](C(=O)N2CCC[C@H]2C(=O)N[C@@H](CCCNC(=N)N)C(=O)NCC(N)=O)NC(=O)[C@H](CC(N)=O)NC1=O [Compound B, [Pmp^1,D-Trp^2,Phe^3,Ile^4,Arg^8] oxytocin] ([dW]FINCPRG-NH2; linker N-5 via X1) | – | – | – | – | – | 7.51 | – | 8.62 nM
